Assay results as given in US9012635B2, “Pyridone amides and analogs exhibiting anti-cancer and anti-proliferative activities” (Deciphera Pharmaceuticals, LLC, priority 2013, dated 2015).
Counter-ions that a name gives are not always drawn.

Tests used:
[1] = biological target: T1, c-MET kinase (Seq. ID No. 2) (Homo sapiens, UniProt P08581); experiment: c-MET kinase assay (pyruvate kinase/lactate dehydrogenase coupled, A340); assay type: biochemical; conditions: enzymatic assay, 0.5 h pre-incubation, ATP 100 μM; read-out: cMET
T1 construct: c-MET (c-MET residues: 956-1390, from Invitrogen, catalogue #PV3143, 6 nM); purchased Invitrogen PV3143
Experimental: Activity of c-MET kinase (Seq. ID No. 2) was determined by following the production of ADP from the kinase reaction through coupling with the pyruvate kinase/lactate dehydrogenase system (e.g., Schindler et al. Science 2000, 289, pp. 1938-1942). In this assay, the oxidation of NADH (thus the decrease at A340 nm) was continuously monitored spectrophotometrically. The reaction mixture (100 μl) contained c-MET (c-MET residues: 956-1390, from Invitrogen, catalogue #PV3143, 6 nM), polyE4Y (1 mg/mL), MgCl2 (10 mM), pyruvate kinase (4 units), lactate dehydrogenase (0.7 units), phosphoenol pyruvate (1 mM), and NADH (0.28 mM) in 90 mM Tris buffer containing 0.25 mM DTT, 0.2% octyl-glucoside and 1% DMSO, pH 7.5. Test compounds were incubated with c-MET (Seq. ID No. 2) and other reaction reagents at 22° C. for 0.5 h before ATP (100 μM) was added to start the reaction. The absorption at 340 nm was monitored continuously for 2 hours at 30° C. on Polarstar Optima plate reader (BMG). The reaction rate was calculated using the 1.0 to 2.0 h time frame. Percent inhibition was obtained by comparison of reaction rate with that of a control (i.e., with no test compound). IC50 values were calculated from a series of percent inhibition values determined at a range of inhibitor concentrations using software routines as implemented in the GraphPad Prism software package.

FMS kinase = biological target: T2, FMS kinase (Homo sapiens, UniProt P07333); experiment: FMS kinase assay (pyruvate kinase/lactate dehydrogenase coupled, A340); assay type: biochemical; conditions: enzymatic assay, ATP 500 μM
T2 construct: purchased Millipore
T2 sequence (P07333 538-972): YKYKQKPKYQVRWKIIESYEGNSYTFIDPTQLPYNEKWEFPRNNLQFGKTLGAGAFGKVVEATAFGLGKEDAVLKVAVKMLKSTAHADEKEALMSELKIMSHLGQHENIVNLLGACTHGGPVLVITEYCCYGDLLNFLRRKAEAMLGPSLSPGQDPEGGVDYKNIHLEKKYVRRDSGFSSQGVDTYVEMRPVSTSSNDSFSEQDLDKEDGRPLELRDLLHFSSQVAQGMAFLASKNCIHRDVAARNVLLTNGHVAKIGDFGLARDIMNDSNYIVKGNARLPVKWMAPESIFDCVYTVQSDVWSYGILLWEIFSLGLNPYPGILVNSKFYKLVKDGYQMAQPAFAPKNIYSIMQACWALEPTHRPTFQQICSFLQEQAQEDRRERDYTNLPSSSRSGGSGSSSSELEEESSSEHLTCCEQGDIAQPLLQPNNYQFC
Experimental: Activity of FMS kinase was determined by following the production of ADP from the FMS kinase reaction with ATP and poly E4Y as substrates through coupling with the pyruvate kinase/lactate dehydrogenase system (e.g., Schindler et al. Science (2000) 289: 1938-1942). In this assay, the oxidation of NADH (thus the decrease at A340 nm) was continuously monitored spectrophometrically. The reaction mixture (100 μl) contained FMS (purchased from Millipore) (10 nM), polyE4Y (1 mg/mL), MgCl2 (10 mM), pyruvate kinase (4 units), lactate dehydrogenase (0.7 units), phosphoenol pyruvate (1 mM), and NADH (0.28 mM) and ATP (500 μM) in 90 mM Tris buffer containing 0.2% octyl-glucoside and 1% DMSO, pH 7.5. Immediately, the inhibition reaction was started by mixing serial diluted test compound with the above reaction mixture. The absorption at 340 nm was monitored continuously for 4 hours at 30° C. on Synergy 2 plate reader. The reaction rate was calculated using the 3 to 4 h time frame. Percent inhibition was obtained by comparison of reaction rate with that of a control (i.e. in the absence of test compound). IC50 values were calculated from a series of percent inhibition values determined at a range of inhibitor concentrations using software routines as implemented in the GraphPad Prism software package.

MKN-45 cells = experiment: MKN-45 cell proliferation assay (resazurin); assay type: cell-based; conditions: Homo sapiens, 67 h + 5 h resazurin
Experimental: (§1) MKN-45 cells (catalog #JCRB0254) were obtained from the Japan Health Science Research Resources Bank, Osaka, Japan. Briefly, cells were grown in RPMI 1640 media supplemented with 10% characterized fetal bovine serum (Invitrogen, Carlsbad, Calif.) at 37° C., 5% CO2, 95% humidity. Cells were allowed to expand until reaching 70-95% confluency at which point they were subcultured or harvested for assay use.
(§2) A serial dilution of test compound was dispensed into a 96-well black clear bottom plate (Corning, Corning, N.Y.). Five thousand cells were added per well in 200 μL complete growth medium. Plates were incubated for 67 hours at 37° C., 5% CO2, 95% humidity. At the end of the incubation period 40 μL of a 440 μM solution of resazurin (Sigma, St. Louis, Mo.) in PBS was added to each well and plates were incubated for an additional 5 h at 37° C., 5% CO2, 95% humidity. Plates were read on a Synergy2 reader (Biotek, Winooski, Vt.) using an excitation of 540 nm and an emission of 600 nm. Data was analyzed using Prism software (GraphPad, San Diego, Calif.) to calculate IC50 values.

EBC-1 cells = experiment: EBC-1 cell proliferation assay (resazurin); assay type: cell-based; conditions: Homo sapiens, 67 h + 5 h resazurin, read-out: EBC1 Proliferation
Experimental: as §1, with “EBC-1” for “MKN-45”, “#JCRB0820)” for “#JCRB0254)”, “DMEM” for “RPMI 1640 media”
as §2, with “N.Y.). For each cell line, five” for “N.Y.). Five”, “and” for “and plates were”, “5 hours” for “5 h”

T1 sequence (P08581 with tags, fused parts or gaps): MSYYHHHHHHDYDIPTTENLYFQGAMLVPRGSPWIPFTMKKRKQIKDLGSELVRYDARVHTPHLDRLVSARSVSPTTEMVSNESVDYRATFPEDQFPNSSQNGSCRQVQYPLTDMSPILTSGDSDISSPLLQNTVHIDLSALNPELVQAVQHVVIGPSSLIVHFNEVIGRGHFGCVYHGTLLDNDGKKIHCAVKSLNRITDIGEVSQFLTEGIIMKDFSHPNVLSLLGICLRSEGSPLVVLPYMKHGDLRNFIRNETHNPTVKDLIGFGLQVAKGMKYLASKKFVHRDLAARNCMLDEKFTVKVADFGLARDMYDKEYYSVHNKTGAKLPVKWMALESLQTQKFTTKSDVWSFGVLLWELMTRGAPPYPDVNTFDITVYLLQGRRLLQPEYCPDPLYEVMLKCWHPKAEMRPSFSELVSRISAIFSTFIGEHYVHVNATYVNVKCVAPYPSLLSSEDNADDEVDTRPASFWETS

| SMILES | IC50 [1] [nM] | IC50 (FMS kinase) [nM] | IC50 (MKN-45 cells) [nM] | IC50 (EBC-1 cells) [nM] |
| --- | --- | --- | --- | --- |
| Cn1cc(-c2cc(Oc3cc(F)c(NC(=O)c4cccn(-c5ccc(F)cc5)c4=O)cc3F)ccn2)cn1 [Example 1, N-(2,5-difluoro-4-((2-(1-methyl-1H-pyrazol-4-yl)pyridin-4-yl)oxy)phenyl)-1-(4-fluorophenyl)-2-oxo-1,2-dihydropyridine-3-carboxamide] | ≤ 100 | ≤ 100 | ≤ 100 | ≤ 100 |
| CCOc1ccn(-c2ccc(F)cc2)c(=O)c1C(=O)Nc1cc(F)c(Oc2ccnc(-c3cnn(C)c3)c2)cc1F [Example 2, N-(2,5-difluoro-4-(2-(1-methyl-1H-pyrazol-4-yl)pyridin-4-yloxy)phenyl)-4-ethoxy-1-(4-fluorophenyl)-2-oxo-1,2-dihydropyridine-3-carboxamide] | ≤ 100 | 100 to 1000 | ≤ 100 | ≤ 100 |
| O=C(Nc1cc(F)c(Oc2ccnc(-c3cnn(CCO)c3)c2)cc1F)c1cccn(-c2ccc(F)cc2)c1=O [Example 3, N-(2,5-difluoro-4-((2-(1-(2-hydroxyethyl)-1H-pyrazol-4-yl)pyridin-4-yl)oxy)phenyl)-1-(4-fluorophenyl)-2-oxo-1,2-dihydropyridine-3-carboxamide hydrochloride] | ≤ 100 | ≤ 100 |  |  |
| CCNc1ccn(-c2ccc(F)cc2)c(=O)c1C(=O)Nc1cc(F)c(Oc2ccnc(-c3cnn(C)c3)c2)cc1F [Example 5, N-(2,5-difluoro-4-((2-(1-methyl-1H-pyrazol-4-yl)pyridin-4-yl)oxy)phenyl)-4-(ethylamino)-1-(4-fluorophenyl)-2-oxo-1,2-dihydropyridine-3-carboxamide] | ≤ 100 | 100 to 1000 | 100 to 1000 | 100 to 1000 |
